Laboratory results: patent US12704520B2, “Melanogenesis detection method using FAM86A” (Research & Business Foundation Sungkyunkwan University, priority 2019, dated 2026)

Legend:
FAM86A (NM_201400.4) = assay: shRNA mean knockdown level of FAM86A (Table 1); type: cell-based; conditions: Homo sapiens FAM86A, pLKO.1 vector
FAM86 (NM_027446.2) = assay: shRNA mean knockdown level of FAM86 (Table 1); type: cell-based; conditions: Mus musculus FAM86, pLKO.1 vector
B16F10 cells = assay: Melanogenesis induced by α-MSH (melanin content assay); type: cell-based, mouse; conditions: α-MSH 100 nM, 48 hours
protein FAM86A = assay: Western blotting of protein FAM86A after α-MSH treatment; type: cell-based, mouse; conditions: B16F10 cells, α-MSH 100 nM, 48 hours
Description: The B16F10 cells cultured in Example 1 were seeded in 6-well plates at a density of 5×10^4 cells per well, grown for 24 hours, and then treated with α-MSH at 100 nM. The cells were incubated in an incubator under conditions of 37° C. and 5% CO2 for 48 hours, and washed with PBS twice. Subsequently, PBS was completely removed, and then 200 μL of RIPA buffer, which is a tissue lysis and staining reagent, was added to each plate, followed by harvesting cells with a scraper. Afterward, a BCA assay was conducted to quantify proteins, and electrophoresis was performed using 10% SDS-PAGE. The protein in the resulting SDS-PAGE gel was transferred onto a PVDF membrane, and the resulting PVDF membrane onto which the protein transfer had been completed was blocked in TBS-T (in 100 mM NaCl, 10 mM Tris, 0.1% (v/v) Tween-20, pH 7.4 (PBST) containing 3% BSA) at room temperature. After washing three times with TBS-T for 10 minutes, a primary antibody in 3% BSA dissolved in TBS-T was treated for 1 hour, and then sufficiently washed with TBS-T. In addition, a secondary antibody for 1 hour, and washed three times with PBS-T for 10 minutes each. Subsequently, the amount and location of a specific protein were confirmed using an ECL detection system. […]

[1] = system: tyrosinase, TYRP-1, TYRP-2, MITF and FAM86A genes; assay: Real-time PCR of melanogenesis-associated genes and FAM86A after α-MSH treatment; type: cell-based, mouse; conditions: B16F10 cells, α-MSH 100 nM, 48 hours
Description: The B16F10 cells cultured in Example 1 were seeded in 6-well plates at a density of 5×10^4 cells per well, grown for 24 hours, and then treated with α-MSH at 100 nM. The cells were incubated in an incubator under conditions of 37° C. and 5% CO2 for 48 hours. After 48 hours of incubation, the medium was completely removed, the cells were decomposed with TRIzol and neutralized using BCP. The neutralized liquid was treated with isopropanol to precipitate mRNA. Subsequently, only the precipitated mRNA was collected using a centrifuge, and used for the experiment. Intracellular mRNA was synthesized into cDNA using a cDNA kit, and the expression levels of tyrosinase, TYRP-1, TYRP-2, MITF and FAM86A genes, which are important for melanogenesis, were determined by PCR.

Substance: SEQ ID NO: 11: FAM86A shRNA (Homo sapiens, NM_201400.4), pLKO.1 vector, target sequence SEQ ID NO: 21 (DNA CCGGGCAGAAACTGTTTCCCTACGACTCGAGTCGTAGGGAAACAGTTTCTGCTTTTTG)
- Mean Knock down level (FAM86A (NM_201400.4)): 0.93

Substance: SEQ ID NO: 12: FAM86A shRNA (Homo sapiens, NM_201400.4), pLKO.1 vector, target sequence SEQ ID NO: 22 (DNA CCGGCGAGGGAATGTCCTTCTCAATCTCGAGATTGAGAAGGACATTCCCTCGTTTTTG)
- Mean Knock down level (FAM86A (NM_201400.4)): 0.84

Substance: SEQ ID NO: 16: FAM86 shRNA (Mus musculus, NM_027446.2), pLKO.1 vector, target sequence SEQ ID NO: 26 (DNA CCGGGAGCATTCAGCCATCGTAATCCTCGAGGATTACGATGGCTGAATGCTCTTTTTG)
- Mean Knock down level (FAM86 (NM_027446.2)): 0.56

Substance: SEQ ID NO: 13: FAM86A shRNA (Homo sapiens, NM_201400.4), pLKO.1 vector, target sequence SEQ ID NO: 23 (DNA CCGGGATGTTGTCATTGCAGCAGATCTCGAGATCTGCTGCAATGACAACATCTTTTTG)
- Mean Knock down level (FAM86A (NM_201400.4)): 0.79

Substance: SEQ ID NO: 14: FAM86A shRNA (Homo sapiens, NM_201400.4), pLKO.1 vector, target sequence SEQ ID NO: 24 (DNA CCGGGCCAGCAGTTCTGGTTCTTAACTCGAGTTAAGAACCAGAACTGCTGGCTTTTTG)
- Mean Knock down level (FAM86A (NM_201400.4)): 0.77

Substance: SEQ ID NO: 15: FAM86A shRNA (Homo sapiens, NM_201400.4), pLKO.1 vector, target sequence SEQ ID NO: 25 (DNA CCGGGCAGACATCACTGCCAAGTTACTCGAGTAACTTGGCAGTGATGTCTGCTTTTTG)
- Mean Knock down level (FAM86A (NM_201400.4)): 0.6

Substance: Ac-Ser-Tyr-Ser-Met-Glu-His-Phe-Arg-Trp-Gly-Lys-Pro-Val-NH2 [α-MSH]
- melanogenesis (B16F10 cells): increased
- expression level of the protein FAM86A (protein FAM86A): decreases
- expression level of FAM86A gene [1]: decreased
- expression level of MITF gene [1]: significantly increased
- expression level of TYRP-1 gene [1]: significantly increased
- expression level of TYRP-2 gene [1]: significantly increased
- expression level of tyrosinase gene [1]: significantly increased
